Active and inactive are the calls of the source. No rule for the calls is given here.
System: StAR promoter luciferase reporter cells, luminescence counterscreen
Experiment: StAR promoter reporter inhibition counter-screen, dose response, counter-screen for LRH-1 inverse agonist project, cell-based, luminescence, luciferase reporter (AID 651969)

For `COc1ccc(NC(=O)COC(=O)c2cc(S(=O)(=O)N3CCCC3)ccc2O)cc1`, the IC50 was > 35.9 µM (inactive).

From PubChem BioAssay AID651969 (The Scripps Research Institute Molecular Screening Center, 2013)
